# Source: ChEMBL document CHEMBL1201862, “PubChem BioAssay data set” (2004)
# Active and inactive are the calls of the source.
# Assays:
# [1] = A Cell Based Secondary Assay To Explore Cytotoxicity of Compounds that Sensitize Mycobacterium Tuberculosis to Beta-Lactam Antibiotics.; type: functional
# [2] = molecular target: Cytochrome P450 2C9 (Homo sapiens, UniProt P11712)
# [3] = NIH-3T3 fibroblast cytotoxicity, dose response, cytotoxicity control, cell-based, fluorescence, Alamar Blue, secondary assay (AID 2327); type: functional;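 further: NIH-3T3 mouse fibroblasts cultured with fluconazole at 8 µg/mL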
# [4] = system: BJ; assay: cytotoxicity toward BJ-TERT fibroblasts, dose response, cell-based, RAS-independent, luminescence (AID 1933); type: functional; settings: Homo sapiens
# [5] = system: BJ; assay: cytotoxicity toward BJ-TERT-LT-ST fibroblasts, dose response, cell-based, RAS-independent, luminescence (AID 1935); type: functional; settings: Homo sapiens;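 further: BJ fibroblasts immortalized with TERT plus LT and ST oncogenes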
# [6] = cytotoxicity toward DRD oncogenic fibroblasts, dose response, cell-based, non-viral oncogenic, luminescence (AID 1934); type: functional; settings: Homo sapiens
# [7] = C. albicans growth with fluconazole, confirmation, fluorescence, retest (AID 2467); type: functional, cell-based
# [8] = system: BJ; assay: cells; type: functional, cell-based; settings: Homo sapiens
# [9] = cytotoxicity in HEK-293T cells, dose response, cytotoxicity control for TCR NF-kB inhibitor project, luminescence, T-cell screen hits (AID 489026); type: functional, cell-based;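 further: cells exposed to compound about 14 hours before the viability readout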
# [10] = A cytotoxicity screen of small molecule inhibitors of the PhoP region in Salmonella typhi identified in the primary screen. [Related pubchem assays: 1850, 1864, 1985 ]; type: functional
# [11] = molecular target: T1, DNA repair protein RAD52 homolog (Homo sapiens, UniProt P43351); type: functional, biochemical
# T1 sequence (P43351 whole entry): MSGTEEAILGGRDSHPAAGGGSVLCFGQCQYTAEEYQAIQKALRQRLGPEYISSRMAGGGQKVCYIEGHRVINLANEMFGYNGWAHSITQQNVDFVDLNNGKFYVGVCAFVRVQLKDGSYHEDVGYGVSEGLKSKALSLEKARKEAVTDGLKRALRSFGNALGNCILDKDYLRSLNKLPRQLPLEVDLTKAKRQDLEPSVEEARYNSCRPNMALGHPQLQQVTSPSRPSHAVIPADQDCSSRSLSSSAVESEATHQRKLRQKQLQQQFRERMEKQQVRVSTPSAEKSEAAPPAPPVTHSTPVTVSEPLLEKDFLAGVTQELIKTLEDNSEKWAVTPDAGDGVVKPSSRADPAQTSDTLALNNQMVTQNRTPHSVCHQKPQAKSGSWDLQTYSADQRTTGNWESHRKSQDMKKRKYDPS
# [12] = molecular target: T2, Ubiquitin-conjugating enzyme E2 N (Homo sapiens, UniProt P61088); type: functional;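 further: Dose-response confirmation in a TR-FRET assay detecting UBC13-driven polyubiquitin chain formation, inhibition measured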
# T2 sequence (P61088 whole entry): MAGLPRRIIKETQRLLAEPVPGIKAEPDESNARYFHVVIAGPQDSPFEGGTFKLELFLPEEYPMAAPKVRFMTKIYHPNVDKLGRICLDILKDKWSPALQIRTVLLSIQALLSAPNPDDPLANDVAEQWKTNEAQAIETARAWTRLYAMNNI
# [13] = molecular target: Nonstructural protein 1 (Influenza A virus, UniProt Q194T2); type: functional, Influenza A virus (A/California/07/2009(H1N1))
# [14] = molecular target: T3, Heat shock factor protein 1 (Mus musculus, UniProt P38532); assay: inhibition of MG132-induced HSE-luciferase signal, confirmation, cell-based, NIH3T3, luminescence, dose retest (AID 2382); type: functional;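 further: NIH3T3 fibroblasts with HSF1-driven luciferase reporter stressed by proteasome inhibitor MG132; luminescence from HSF1-driven luciferase expression after 8 hours of MG132 stress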
# T3 sequence (P38532 whole entry): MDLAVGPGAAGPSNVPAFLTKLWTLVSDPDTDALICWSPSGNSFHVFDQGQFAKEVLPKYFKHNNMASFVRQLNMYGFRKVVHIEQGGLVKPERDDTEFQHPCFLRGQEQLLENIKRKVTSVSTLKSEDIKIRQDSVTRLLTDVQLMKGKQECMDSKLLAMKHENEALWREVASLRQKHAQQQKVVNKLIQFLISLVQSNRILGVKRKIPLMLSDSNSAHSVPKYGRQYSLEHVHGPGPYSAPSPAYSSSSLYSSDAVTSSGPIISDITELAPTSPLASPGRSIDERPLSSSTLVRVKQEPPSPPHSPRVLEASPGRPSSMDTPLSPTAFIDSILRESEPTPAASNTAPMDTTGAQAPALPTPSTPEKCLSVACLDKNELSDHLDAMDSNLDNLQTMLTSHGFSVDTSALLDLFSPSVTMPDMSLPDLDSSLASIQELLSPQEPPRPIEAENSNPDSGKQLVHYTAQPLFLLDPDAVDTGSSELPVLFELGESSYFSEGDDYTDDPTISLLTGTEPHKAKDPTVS
# [15] = molecular target: T4, Polyadenylate-binding protein 1 (Homo sapiens, UniProt P11940); assay: PABP1 MLLE–PAM2 interaction inhibitors, dose response, miRNA deadenylation inhibitor project, biochemical, fluorescence polarization, Cy5-PAM2 peptide, secondary (AID 602260); type: functional; settings: read-out: IC50_Mean
# [16] = molecular target: T4, Polyadenylate-binding protein 1; assay: PABP1 MLLE–PAM2 binding inhibitor potency, dose response, biochemical, fluorescence polarization, FITC-PAM2 peptide (AID 602259); type: functional; settings: read-out: IC50_Mean
# [17] = molecular target: T5, Protein skinhead-1 (Caenorhabditis elegans, UniProt P34707); type: functional
# T5 sequence (P34707 whole entry): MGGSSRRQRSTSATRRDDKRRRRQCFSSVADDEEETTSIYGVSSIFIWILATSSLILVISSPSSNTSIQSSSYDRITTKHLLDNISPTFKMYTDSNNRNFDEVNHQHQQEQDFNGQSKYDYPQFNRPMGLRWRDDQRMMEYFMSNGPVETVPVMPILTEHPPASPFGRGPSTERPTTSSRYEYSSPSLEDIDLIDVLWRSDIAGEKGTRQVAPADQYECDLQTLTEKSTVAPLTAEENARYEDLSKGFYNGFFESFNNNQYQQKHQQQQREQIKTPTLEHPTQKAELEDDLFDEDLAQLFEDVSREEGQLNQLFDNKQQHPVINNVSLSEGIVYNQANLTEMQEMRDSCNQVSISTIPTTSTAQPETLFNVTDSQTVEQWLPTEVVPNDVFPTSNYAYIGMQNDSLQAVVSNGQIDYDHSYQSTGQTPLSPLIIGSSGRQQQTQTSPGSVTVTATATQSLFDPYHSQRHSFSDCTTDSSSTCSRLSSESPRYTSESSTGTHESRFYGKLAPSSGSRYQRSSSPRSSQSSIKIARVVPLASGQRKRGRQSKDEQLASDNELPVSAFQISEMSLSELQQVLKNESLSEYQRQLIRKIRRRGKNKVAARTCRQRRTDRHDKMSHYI
# [18] = molecular target: Prothrombin (Homo sapiens, UniProt P00734); assay: Thrombin 1536 HTS Dose Response Confirmation. [Related pubchem assays: 1046 (Thrombin 1536 HTS; hits were confirmed in this assay)]; type: functional
# [19] = molecular target: T6, Aminopeptidase N (Plasmodium falciparum FcB1/Columbia, UniProt O96935); assay: P. falciparum M1AAP inhibitors, biochemical, fluorogenic H-Leu-NHMec substrate, 1536-well (AID 1445); design: species or system Plasmodium falciparum 3D7, 3D7
# T6 sequence (O96935 whole entry): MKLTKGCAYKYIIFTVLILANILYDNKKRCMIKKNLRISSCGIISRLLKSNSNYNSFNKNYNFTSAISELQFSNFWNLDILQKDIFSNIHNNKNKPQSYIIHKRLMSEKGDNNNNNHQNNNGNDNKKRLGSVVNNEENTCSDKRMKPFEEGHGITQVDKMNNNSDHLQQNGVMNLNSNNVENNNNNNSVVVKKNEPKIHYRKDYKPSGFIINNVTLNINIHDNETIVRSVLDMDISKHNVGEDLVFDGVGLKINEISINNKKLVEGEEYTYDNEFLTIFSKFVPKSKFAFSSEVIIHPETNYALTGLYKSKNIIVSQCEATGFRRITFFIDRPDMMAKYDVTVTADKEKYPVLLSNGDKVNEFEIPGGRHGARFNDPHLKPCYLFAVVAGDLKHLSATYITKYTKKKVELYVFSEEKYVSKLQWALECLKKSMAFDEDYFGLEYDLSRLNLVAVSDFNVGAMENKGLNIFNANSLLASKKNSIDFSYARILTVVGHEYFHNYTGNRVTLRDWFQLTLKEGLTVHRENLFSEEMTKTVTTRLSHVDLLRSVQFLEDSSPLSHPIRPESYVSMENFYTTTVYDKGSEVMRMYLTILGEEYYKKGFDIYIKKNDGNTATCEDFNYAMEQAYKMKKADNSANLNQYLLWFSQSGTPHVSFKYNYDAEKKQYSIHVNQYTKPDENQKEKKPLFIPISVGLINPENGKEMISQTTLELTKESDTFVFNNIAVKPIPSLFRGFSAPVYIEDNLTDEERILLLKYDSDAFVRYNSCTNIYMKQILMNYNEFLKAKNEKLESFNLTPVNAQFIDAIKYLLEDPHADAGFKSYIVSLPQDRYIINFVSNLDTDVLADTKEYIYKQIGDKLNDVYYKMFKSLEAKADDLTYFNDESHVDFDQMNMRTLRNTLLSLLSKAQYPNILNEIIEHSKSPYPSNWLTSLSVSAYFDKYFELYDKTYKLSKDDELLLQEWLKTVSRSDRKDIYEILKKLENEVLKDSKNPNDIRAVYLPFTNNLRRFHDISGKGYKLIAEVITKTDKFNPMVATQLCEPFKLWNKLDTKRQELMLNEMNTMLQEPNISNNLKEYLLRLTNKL
# [20] = molecular target: T7, RNA-binding protein pos-1 (Caenorhabditis elegans, UniProt G5EF15); assay: inhibitors of POS-1/mex-3 RNA binding, dose response, biochemical, fluorescence polarization (AID 1964);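 further: purified POS-1 fused to maltose binding protein made in E. coli; potency of compounds blocking POS-1 binding to fluorescent RNA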
# T7 sequence (G5EF15 whole entry): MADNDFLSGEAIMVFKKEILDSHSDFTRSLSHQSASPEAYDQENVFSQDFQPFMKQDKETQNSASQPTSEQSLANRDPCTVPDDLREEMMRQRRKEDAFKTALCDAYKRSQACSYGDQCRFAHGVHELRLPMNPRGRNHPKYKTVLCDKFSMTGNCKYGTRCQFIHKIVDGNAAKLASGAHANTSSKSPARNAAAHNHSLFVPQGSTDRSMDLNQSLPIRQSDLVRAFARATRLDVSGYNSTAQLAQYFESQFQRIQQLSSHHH
# [21] = molecular target: T8, Zinc finger protein mex-5 (Caenorhabditis elegans, UniProt Q9XUB2); assay: MEX-5/TCR-2 RNA interaction inhibitors, dose response, biochemical, C. elegans, fluorescence polarization (AID 1960)
# T8 sequence (Q9XUB2 whole entry): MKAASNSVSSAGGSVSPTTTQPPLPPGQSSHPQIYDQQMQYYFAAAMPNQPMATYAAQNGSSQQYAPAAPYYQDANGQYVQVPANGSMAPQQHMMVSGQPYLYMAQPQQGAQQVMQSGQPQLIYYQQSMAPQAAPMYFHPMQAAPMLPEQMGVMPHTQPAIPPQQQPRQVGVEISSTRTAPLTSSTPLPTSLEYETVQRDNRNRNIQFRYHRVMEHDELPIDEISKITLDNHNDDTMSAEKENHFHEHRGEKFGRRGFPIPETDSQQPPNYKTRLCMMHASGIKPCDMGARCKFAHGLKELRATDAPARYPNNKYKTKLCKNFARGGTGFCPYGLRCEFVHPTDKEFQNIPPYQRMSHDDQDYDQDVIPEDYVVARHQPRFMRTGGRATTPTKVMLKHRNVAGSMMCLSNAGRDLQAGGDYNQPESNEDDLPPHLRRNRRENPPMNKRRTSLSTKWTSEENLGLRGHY
# [22] = molecular target: Cytochrome P450 3A4 (Homo sapiens, UniProt P08684);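 further: CYP3A4 tested as one member of a cytochrome P450 panel screen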
# Sequence of Cytochrome P450 3A4 (P08684 whole entry): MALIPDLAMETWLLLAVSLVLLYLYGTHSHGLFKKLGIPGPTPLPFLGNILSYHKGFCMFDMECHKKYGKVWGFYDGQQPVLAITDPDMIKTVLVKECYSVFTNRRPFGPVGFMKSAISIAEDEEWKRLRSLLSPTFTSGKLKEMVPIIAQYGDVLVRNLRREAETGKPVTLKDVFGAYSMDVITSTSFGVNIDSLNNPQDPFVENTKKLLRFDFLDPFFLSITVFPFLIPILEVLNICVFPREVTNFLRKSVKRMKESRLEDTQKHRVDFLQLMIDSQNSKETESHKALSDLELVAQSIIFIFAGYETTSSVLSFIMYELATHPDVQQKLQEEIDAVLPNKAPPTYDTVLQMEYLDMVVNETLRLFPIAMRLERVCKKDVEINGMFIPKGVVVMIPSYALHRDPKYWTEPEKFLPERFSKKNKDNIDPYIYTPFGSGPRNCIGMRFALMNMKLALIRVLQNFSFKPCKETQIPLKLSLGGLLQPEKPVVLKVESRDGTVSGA
# Sequence of Cytochrome P450 2C9 (P11712 whole entry): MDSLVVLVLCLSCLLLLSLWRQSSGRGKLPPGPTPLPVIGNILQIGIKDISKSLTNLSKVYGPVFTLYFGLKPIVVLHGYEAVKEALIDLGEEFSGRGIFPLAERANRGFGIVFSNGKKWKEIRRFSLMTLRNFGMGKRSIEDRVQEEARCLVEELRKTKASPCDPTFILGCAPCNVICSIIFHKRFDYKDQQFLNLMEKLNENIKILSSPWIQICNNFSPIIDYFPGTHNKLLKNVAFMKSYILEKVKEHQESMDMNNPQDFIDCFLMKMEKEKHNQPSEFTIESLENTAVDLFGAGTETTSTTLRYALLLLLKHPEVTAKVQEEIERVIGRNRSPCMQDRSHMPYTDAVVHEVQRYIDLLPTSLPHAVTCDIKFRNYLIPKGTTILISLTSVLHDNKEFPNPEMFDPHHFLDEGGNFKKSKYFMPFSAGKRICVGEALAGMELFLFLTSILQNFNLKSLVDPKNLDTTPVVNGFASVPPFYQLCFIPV
# T4 sequence (P11940 whole entry): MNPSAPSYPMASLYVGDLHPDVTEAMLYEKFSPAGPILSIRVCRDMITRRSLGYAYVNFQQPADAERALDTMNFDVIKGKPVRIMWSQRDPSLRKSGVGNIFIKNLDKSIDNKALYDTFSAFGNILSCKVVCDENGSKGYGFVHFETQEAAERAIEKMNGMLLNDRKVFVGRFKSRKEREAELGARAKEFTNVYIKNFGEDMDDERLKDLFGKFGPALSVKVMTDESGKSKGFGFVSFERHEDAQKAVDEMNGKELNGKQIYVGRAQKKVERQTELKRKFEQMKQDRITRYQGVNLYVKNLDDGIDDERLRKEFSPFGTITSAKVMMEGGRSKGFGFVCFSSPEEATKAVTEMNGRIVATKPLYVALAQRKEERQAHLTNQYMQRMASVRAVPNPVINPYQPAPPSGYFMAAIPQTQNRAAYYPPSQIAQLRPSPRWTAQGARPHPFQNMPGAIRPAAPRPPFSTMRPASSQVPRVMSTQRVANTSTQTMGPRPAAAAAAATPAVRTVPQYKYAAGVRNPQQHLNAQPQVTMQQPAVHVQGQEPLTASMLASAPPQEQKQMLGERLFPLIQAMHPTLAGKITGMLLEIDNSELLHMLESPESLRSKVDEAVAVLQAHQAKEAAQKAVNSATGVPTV
# Sequence of Nonstructural protein 1 (Q194T2 whole entry): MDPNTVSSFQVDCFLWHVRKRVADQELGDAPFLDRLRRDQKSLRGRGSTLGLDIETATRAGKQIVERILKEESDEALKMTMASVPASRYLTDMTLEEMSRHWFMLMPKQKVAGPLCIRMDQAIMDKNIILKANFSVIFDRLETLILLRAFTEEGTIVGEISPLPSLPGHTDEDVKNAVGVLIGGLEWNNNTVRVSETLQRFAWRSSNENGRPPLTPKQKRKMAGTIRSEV
compound,measurement,setting,value
O=C(NCC(c1ccco1)N1CCc2ccccc21)c1ccc([N+](=O)[O-])cc1 (configuration not stated),CC50,[1],> 40 µM (active)
COc1ccc(OC[C@@H](CO)OC)cc1,AC50,[2],inconclusive
COc1ccc(-[n+]2c(-c3ccccc3)cc(-c3ccc(C)cc3)cc2-c2ccccc2)cc1.[O-][Cl+3]([O-])([O-])[O-],EC50,[3],7.59 µM (active)
same,EC50,[4],3.39 µM (active)
same,EC50,[5],19.8 µM (active)
same,EC50,[6],10 µM (inconclusive)
same,EC50,[7],0.037 µM (active)
same,EC50,[8],5 µM (active)
same,IC50,[9],> 80 µM (inactive)
O=C(O)Cn1c(=O)c2c3c(sc2n(Cc2ccccc2F)c1=O)CCCC3,EC50,[10],> 50 µM (active)
COc1ccc(CNS(=O)(=O)c2cc(-c3cc(C)no3)ccc2C(C)C)cc1,IC50,[9],> 80 µM (inactive)
COc1ccc(OC)c(C(=O)CN2C(=O)NC(C)(c3ccccc3)C2=O)c1 (configuration not stated),AC50,[2],inconclusive
Cc1ccc(Cn2c(C(C)Nc3nc(-c4ccc(Cl)cc4)cs3)nc3cc(C(=O)NCCCO)ccc32)cc1 (configuration not stated),CC50,[1],> 40 µM (active)
CCOc1cc(C(c2c(C)n[nH]c2O)c2c(C)n[nH]c2O)cc([N+](=O)[O-])c1O,EC50,[10],> 50 µM (active)
COc1ccc2nc(SCC(=O)N3CCCCCC3)c(C#N)cc2c1,CC50,[1],> 40 µM (active)
CN1CCC(CN)(N2CCN(c3ccccc3)CC2)CC1,AC50,[11],23.1 µM (active)
same,IC50,[12],> 20 µM (inactive)
same,IC50,[13],> 100 µM (active)
COc1ccccc1CNCCc1ccc(F)cc1,EC50,[10],> 50 µM (active)
Cc1ccc(CN2C3=NCCN3c3ccccc32)cc1,EC50,[10],> 50 µM (active)
COc1cccc(C(=O)Nc2cccc(SC)c2)c1,EC50,[10],> 50 µM (active)
O=C(Oc1c(-c2ccccc2Cl)oc2ccccc2c1=O)c1ccc(Cl)cc1,EC50,[14],> 195 µM (not active)
same,CC50,[1],> 40 µM (active)
Cc1cc2cc(CN=C(S)Nc3ccc(OC(F)(F)F)cc3)ccc2n1C,IC50,[15],> 66 µM (inactive)
same,IC50,[16],> 66 µM (inactive)
same,IC50,[17],> 100 µM (inactive)
same,IC50,[13],> 100 µM (active)
O=C1NC(=O)N(CCc2ccccc2)C(=O)/C1=C/NNC(=O)c1ccncc1,IC50,[18],> 50 µM (not active)
same,IC50,[19],38.4 µM (active)
same,EC50,[20],> 300 µM (not active)
same,EC50,[21],> 300 µM (not active)
Cc1c(/C=N/NC(=O)c2ccc3c(c2)OCO3)cnn1C,AC50,[22],22.4 µM (inconclusive)
same,EC50,[10],> 50 µM (active)
O=C(/C=C/c1cccnc1)c1ccc(O)cc1,CC50,[1],17.5 µM (active)
Cc1ccc(CNC(=O)C2CC(c3ccccc3[N+](=O)[O-])=NO2)cc1 (configuration not stated),AC50,[2],inconclusive
Nc1ncnc2c1ncn2[C@@H]1CCCO1,AC50,[2],inconclusive
CCOc1cccc(/C=N/Nc2nc(N3CCCC3)nc(N3CCCC3)n2)c1O,CC50,[1],> 40 µM (active)
